# ChEMBL document CHEMBL5236653, “Dual functional antioxidant and butyrylcholinesterase inhibitors for the treatment of Alzheimer's disease: Design, synthesis and evaluation of novel melatonin-alkylbenzylamine hybrids” (Bioorg Med Chem, 2023)
# Key:
# [1] = Antioxidant activity assessed as trolox equivalent of ORAC radical scavenging activity by ORAC assay; type: functional
# Acetylcholinesterase [2] = biological target: Acetylcholinesterase (Electrophorus electricus, UniProt O42275); test: Inhibition of electric eel AChE using ATCI and BTCI as substrate preincubated for 5 mins followed by substrate addition and measured after 3 mins by DTNB-reagent based Ellman's method
# Acetylcholinesterase (Electrophorus electricus, UniProt O42275), sequence (O42275 whole entry): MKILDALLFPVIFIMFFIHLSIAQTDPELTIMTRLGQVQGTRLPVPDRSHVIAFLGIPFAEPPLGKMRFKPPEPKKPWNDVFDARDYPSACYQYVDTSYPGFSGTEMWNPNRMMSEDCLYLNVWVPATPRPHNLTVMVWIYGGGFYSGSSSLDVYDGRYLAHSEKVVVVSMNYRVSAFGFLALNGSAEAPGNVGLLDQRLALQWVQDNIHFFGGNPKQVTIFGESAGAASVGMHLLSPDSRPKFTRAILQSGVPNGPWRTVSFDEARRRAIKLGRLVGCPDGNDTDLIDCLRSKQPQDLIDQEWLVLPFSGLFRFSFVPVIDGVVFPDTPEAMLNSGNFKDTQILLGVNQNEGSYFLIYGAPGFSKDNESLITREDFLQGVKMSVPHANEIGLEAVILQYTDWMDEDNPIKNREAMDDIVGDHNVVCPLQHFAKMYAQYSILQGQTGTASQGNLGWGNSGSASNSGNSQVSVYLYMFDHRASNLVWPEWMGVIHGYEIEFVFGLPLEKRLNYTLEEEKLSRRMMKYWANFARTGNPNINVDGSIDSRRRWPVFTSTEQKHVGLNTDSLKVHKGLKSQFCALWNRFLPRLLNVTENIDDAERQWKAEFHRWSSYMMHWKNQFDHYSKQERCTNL
# in vitro = settings: PAMPA
# Description: Permeability coefficient of the compound across blood brain barrier incubated for 18 hrs by PAMPA assay
# Cholinesterase [3] = biological target: Cholinesterase (Homo sapiens, UniProt P06276); test: Inhibition of human serum BuChE using ATCI and BTCI as substrate preincubated for 5 mins followed by substrate addition and measured after 3 mins by DTNB-reagent based Ellman's method; type: cell-free
# Cholinesterase (Homo sapiens, UniProt P06276), sequence (P06276 whole entry): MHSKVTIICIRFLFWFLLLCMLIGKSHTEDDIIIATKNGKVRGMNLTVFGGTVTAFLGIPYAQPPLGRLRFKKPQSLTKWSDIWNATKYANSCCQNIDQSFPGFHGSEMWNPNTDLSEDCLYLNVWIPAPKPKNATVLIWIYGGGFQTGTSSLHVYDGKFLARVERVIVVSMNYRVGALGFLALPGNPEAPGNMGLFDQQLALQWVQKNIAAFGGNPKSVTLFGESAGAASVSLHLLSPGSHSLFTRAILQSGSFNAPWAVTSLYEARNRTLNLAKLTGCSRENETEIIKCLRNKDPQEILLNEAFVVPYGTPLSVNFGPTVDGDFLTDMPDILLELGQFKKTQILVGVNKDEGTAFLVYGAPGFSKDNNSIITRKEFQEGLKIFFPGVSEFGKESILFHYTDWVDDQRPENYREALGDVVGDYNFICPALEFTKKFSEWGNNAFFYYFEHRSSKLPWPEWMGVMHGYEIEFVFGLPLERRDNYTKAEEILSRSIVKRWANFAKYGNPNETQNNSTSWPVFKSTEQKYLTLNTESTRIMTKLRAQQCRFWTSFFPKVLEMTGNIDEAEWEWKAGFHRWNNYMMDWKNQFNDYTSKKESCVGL
# Cholinesterase [4] = biological target: Cholinesterase (Equus caballus, UniProt P81908); test: Inhibition of equine serum BuChE using ATCI and BTCI as substrate preincubated for 5 mins followed by substrate addition and measured after 3 mins by DTNB-reagent based Ellman's method; type: cell-free
# Cholinesterase (Equus caballus, UniProt P81908), sequence (P81908 whole entry): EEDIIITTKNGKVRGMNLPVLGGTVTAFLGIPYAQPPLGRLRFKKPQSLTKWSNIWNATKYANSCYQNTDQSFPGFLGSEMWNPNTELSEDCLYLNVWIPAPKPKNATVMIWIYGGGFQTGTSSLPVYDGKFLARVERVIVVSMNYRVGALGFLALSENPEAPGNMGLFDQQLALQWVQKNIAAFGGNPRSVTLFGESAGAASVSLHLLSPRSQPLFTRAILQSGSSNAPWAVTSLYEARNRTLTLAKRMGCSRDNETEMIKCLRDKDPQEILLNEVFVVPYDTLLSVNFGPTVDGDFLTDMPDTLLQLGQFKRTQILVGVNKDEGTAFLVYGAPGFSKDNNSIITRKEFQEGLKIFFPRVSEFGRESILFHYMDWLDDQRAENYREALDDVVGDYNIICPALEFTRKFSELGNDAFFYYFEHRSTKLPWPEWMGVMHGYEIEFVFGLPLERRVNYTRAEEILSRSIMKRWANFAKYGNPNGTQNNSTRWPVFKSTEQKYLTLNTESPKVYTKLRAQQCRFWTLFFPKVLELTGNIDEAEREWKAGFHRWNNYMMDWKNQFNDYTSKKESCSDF
# Acetylcholinesterase [5] = biological target: Acetylcholinesterase (Homo sapiens, UniProt P22303); test: Inhibition of human erythrocyte AChE using ATCI and BTCI as substrate preincubated for 5 mins followed by substrate addition and measured after 3 mins by DTNB-reagent based Ellman's method
# Acetylcholinesterase (Homo sapiens, UniProt P22303), sequence (P22303 whole entry): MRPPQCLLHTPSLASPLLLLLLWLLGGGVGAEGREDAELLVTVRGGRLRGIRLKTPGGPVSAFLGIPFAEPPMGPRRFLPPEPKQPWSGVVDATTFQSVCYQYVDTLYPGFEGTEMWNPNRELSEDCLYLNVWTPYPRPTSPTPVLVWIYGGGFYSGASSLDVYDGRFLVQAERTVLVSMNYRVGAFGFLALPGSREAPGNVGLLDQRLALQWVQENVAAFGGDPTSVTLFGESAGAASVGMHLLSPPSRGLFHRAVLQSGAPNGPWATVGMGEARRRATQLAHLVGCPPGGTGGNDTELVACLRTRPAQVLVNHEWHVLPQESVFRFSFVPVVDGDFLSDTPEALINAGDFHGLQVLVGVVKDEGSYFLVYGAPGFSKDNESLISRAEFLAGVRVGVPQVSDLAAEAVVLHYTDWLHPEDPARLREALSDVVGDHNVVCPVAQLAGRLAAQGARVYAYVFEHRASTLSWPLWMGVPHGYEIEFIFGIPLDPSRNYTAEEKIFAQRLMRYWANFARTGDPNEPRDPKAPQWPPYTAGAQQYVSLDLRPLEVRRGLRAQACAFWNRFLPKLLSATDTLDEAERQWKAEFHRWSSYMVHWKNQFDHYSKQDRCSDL
# [6] = Selectivity index, ratio of IC50 for inhibition of human erythrocyte AChE to inhibition of human serum BuChE
# [7] = Selectivity index, ratio of IC50 for inhibition of human erythrocyte AChE to IC50 for inhibition of human serum BuChE
# [8] = Selectivity index, ratio of IC50 for inhibition of equine serum BuChE to inhibition of electric eel AChE
# [9] = biological target: Acetylcholinesterase (Electrophorus electricus) (UniProt O42275); test: Inhibition of electric eel AChE at 100 uM using ATCI and BTCI as substrate preincubated for 5 mins followed by substrate addition and measured after 3 mins by DTNB-reagent based Ellman's method relative to control; settings: time 8.0 min
# Acetylcholinesterase (Electrophorus electricus), sequence (O42275 24-633 limits assumed): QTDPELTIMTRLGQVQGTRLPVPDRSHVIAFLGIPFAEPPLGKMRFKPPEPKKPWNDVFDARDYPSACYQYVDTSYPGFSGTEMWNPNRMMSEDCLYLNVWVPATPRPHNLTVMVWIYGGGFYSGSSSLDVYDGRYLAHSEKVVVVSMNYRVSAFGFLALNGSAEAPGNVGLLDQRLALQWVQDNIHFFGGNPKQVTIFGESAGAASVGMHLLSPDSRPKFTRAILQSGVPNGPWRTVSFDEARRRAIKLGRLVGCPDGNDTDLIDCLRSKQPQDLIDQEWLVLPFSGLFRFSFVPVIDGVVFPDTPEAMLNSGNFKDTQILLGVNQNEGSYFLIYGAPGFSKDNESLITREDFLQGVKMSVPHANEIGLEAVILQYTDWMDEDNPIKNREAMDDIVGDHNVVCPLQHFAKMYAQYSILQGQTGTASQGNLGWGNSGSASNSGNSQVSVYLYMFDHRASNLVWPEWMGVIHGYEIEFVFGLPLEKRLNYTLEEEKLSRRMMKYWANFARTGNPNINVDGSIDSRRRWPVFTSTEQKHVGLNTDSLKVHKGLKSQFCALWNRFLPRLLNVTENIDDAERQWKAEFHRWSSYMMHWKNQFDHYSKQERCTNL
smiles,measurement,setting,value
COc1ccc2c(c1)c(C=O)cn2CCCCCCCCCCCCN(C)Cc1ccc(O)cc1,Activity,[1],< 0.01 equiv
same,IC50,Acetylcholinesterase [2],33.8 µM
same,Papp at 18 h,in vitro,10 ×10⁻⁶ cm/s
same,IC50,Cholinesterase [3],260 nM
same,IC50,Cholinesterase [4],1.04 µM
same,IC50,Acetylcholinesterase [5],60.6 µM
same,Selectivity Index,[6],> 100
CCN(CCCCCCCCCCCCn1cc(C=O)c2cc(OC)ccc21)Cc1cccc(O)c1,Activity,[1],0.13 equiv
same,IC50,Acetylcholinesterase [2],10.5 µM
same,Ratio IC50,[7],48.3
same,Papp at 18 h,in vitro,8.18 ×10⁻⁶ cm/s
same,IC50,Cholinesterase [3],880 nM
same,IC50,Cholinesterase [4],0.19 µM
same,IC50,Acetylcholinesterase [5],42.5 µM
CN(C)CCCN1c2ccccc2Sc2ccc(Cl)cc21 [CHLORPROMAZINE],Papp at 18 h,in vitro,5.93 ×10⁻⁶ cm/s
COc1ccc2c(c1)c(C=O)cn2CCCCCCCCCCN(C)Cc1cccc(O)c1,Activity,[1],< 0.01 equiv
same,IC50,Acetylcholinesterase [2],3.1 µM
same,Ratio IC50,[7],23.8
same,Papp at 18 h,in vitro,5.76 ×10⁻⁶ cm/s
same,IC50,Cholinesterase [3],190 nM
same,IC50,Cholinesterase [4],0.61 µM
same,IC50,Acetylcholinesterase [5],4.52 µM
COc1ccc2c(c1)c(C=O)cn2CCCCCCN(C)Cc1cccc(O)c1,Activity,[1],0.82 equiv
same,IC50,Acetylcholinesterase [2],0.81 µM
same,IC50,Cholinesterase [4],16.2 µM
COc1ccc2c(c1)c(C=O)cn2CCCCCCCN(C)Cc1ccc(O)cc1,Activity,[1],1.55 equiv
same,IC50,Acetylcholinesterase [2],1.43 µM
same,Ratio IC50,[7],1.81
same,Papp at 18 h,in vitro,4.19 ×10⁻⁶ cm/s
same,IC50,Cholinesterase [3],890 nM
same,IC50,Cholinesterase [4],2.1 µM
same,IC50,Acetylcholinesterase [5],1.61 µM
COc1ccc2c(c1)c(C=O)cn2CCCN(C)Cc1ccc(O)cc1,Activity,[1],1.12 equiv
same,IC50,Acetylcholinesterase [2],67.6 µM
same,Papp at 18 h,in vitro,5.69 ×10⁻⁶ cm/s
same,IC50,Cholinesterase [4],6.53 µM
COc1ccc2c(c1)c(C=O)cn2CCCCCCN(C)Cc1ccc(O)cc1,Activity,[1],0.61 equiv
same,IC50,Acetylcholinesterase [2],0.54 µM
same,IC50,Cholinesterase [4],7.2 µM
COc1ccc2c(c1)c(C=O)cn2CCCCCCCCN(C)Cc1cccc(O)c1,Activity,[1],0.22 equiv
same,IC50,Acetylcholinesterase [2],3.39 µM
same,Ratio IC50,[7],1.21
same,Papp at 18 h,in vitro,6.05 ×10⁻⁶ cm/s
same,IC50,Cholinesterase [3],2150 nM
same,IC50,Cholinesterase [4],5.26 µM
same,IC50,Acetylcholinesterase [5],2.6 µM
COc1ccc2c(c1)c(C=O)cn2CCCCN(C)Cc1cccc(O)c1,Activity,[1],< 0.01 equiv
same,Selectivity Index,[8],> 2
same,inhibition,[9],48.2%
same,IC50,Cholinesterase [4],42 µM
COc1ccc2c(c1)c(C=O)cn2CCCCCCCN(C)Cc1cccc(O)c1,Activity,[1],< 0.01 equiv
same,IC50,Acetylcholinesterase [2],1.39 µM
same,Ratio IC50,[7],1.13
same,Papp at 18 h,in vitro,4.78 ×10⁻⁶ cm/s
same,IC50,Cholinesterase [3],4890 nM
same,IC50,Cholinesterase [4],5.47 µM
same,IC50,Acetylcholinesterase [5],5.54 µM
COc1ccc2c(c1)c(C=O)cn2CCCCCN(C)Cc1ccc(O)cc1,Activity,[1],0.78 equiv
same,IC50,Acetylcholinesterase [2],26.9 µM
same,IC50,Cholinesterase [4],6.19 µM
COc1ccc2c(c1)c(C=O)cn2CCCCCCCCCN(C)Cc1ccc(O)cc1,Activity,[1],< 0.01 equiv
same,IC50,Acetylcholinesterase [2],25.8 µM
same,Ratio IC50,[7],16
same,Papp at 18 h,in vitro,5.85 ×10⁻⁶ cm/s
same,IC50,Cholinesterase [3],390 nM
same,IC50,Cholinesterase [4],0.53 µM
same,IC50,Acetylcholinesterase [5],6.23 µM
O=c1c(O)c(-c2ccc(O)c(O)c2)oc2cc(O)cc(O)c12,Activity,[1],6.14 equiv
